{"source": "patent US20210275422A1", "about": "“ANTI-STRESS COMPOSITION CONTAINING COSMOPERINE” (AMOREPACIFIC CORPORATION, priority 2016, published 2021)", "key": {"[1]": {"target": "T1, oxytocin receptor recombinant protein (Homo sapiens, UniProt P30559)", "T1 construct": "purchased Mybiosource, MA", "T1 sequence (P30559 1-389)": "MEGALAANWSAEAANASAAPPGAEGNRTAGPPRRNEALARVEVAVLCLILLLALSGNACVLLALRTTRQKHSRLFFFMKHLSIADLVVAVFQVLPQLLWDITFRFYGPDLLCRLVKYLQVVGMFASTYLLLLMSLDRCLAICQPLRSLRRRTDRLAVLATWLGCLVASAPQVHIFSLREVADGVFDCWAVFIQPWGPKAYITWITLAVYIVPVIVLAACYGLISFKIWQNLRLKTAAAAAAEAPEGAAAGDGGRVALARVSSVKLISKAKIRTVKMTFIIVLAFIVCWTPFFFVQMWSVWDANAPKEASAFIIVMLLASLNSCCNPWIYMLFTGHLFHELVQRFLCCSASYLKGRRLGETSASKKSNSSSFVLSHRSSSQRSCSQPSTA", "test": "Binding of cosmoperine to the oxytocin receptor by surface plasmon resonance", "details": "SPR chip with oxytocin receptor bound to its surface; cosmoperine 0 to 400 μM; reaction for 90 seconds", "description": "In order to confirm the binding of cosmoperine to the oxytocin receptor, cosmoperine (Sabina Corp, NJ) at a concentration of 0 to 400 μM was applied to a SPR chip (Biorad, MA) with the oxytocin receptor (oxytocin receptor recombinant protein, Mybiosource, MA) bound to its surface, followed by reaction for 90 seconds. Then, the binding pattern of cosmoperine to the oxytocin receptor was measured using a surface plasmon resonance device (Surface plasmon resonance; Biorad, MA)."}, "[2]": {"tested_on": "PC12 (neurocytoma cell)", "test": "Inhibitory effect on glucocorticoid-induced apoptosis (CCK-8 cell survival)", "assay_type": "cell-based", "details": "PC12 cells, 400 μM corticosterone 24 hours, 50 μM cosmoperine pretreated 2 hours before, relative survival rate", "description": "In order to confirm the anti-stress effect of cosmoperine, a test was performed for glucocorticoid-induced apoptosis.\nPC12 (neurocytoma cell; KCLB21721, Korea Cell Line Bank) was seeded into a 96-well plate at 2×10^4 cells/well and cultured at 5% CO2 and 37° C. The culture medium was RPMI 1640 medium (Gibco BRL, Grand Island, N.Y., USA)) supplemented with 10% serum (heat-inactivated fetal bovine serum (FBS, Gibco)), 100 U/ml of penicillin (Gibco) and 100 μg/ml of streptomycin (Gibco). The cells were treated with 400 μM corticosterone (Sigma, MA), which is a stress hormone, and cultured at 5% CO2 and 37° C. for 24 hours to induce stress. 400 μM corticosterone and 50 μM fluoxetine (fluoxetine hydrochloride, Sigma), which is an antidepressant, were used as the positive control group. For the cosmoperine-treated group, 400 μM corticosterone and 50 μM cosmoperine (Sabina Corp, NJ) were used. Fluoxetine and cosmoperine each were pretreated 2 hours before the application of corticosterone. 10 μl of CCK-8 solution (Dojindo Laboratories) was added to each of the wells, followed by culture for 2 hours. Then, measurements were made at […]."}}}
{"compound": "O=C(CCCCc1ccc2c(c1)OCO2)N1CCCCC1", "note": "[cosmoperine, tetrahydropiperine]", "values": [{"measurement": "binding to the oxytocin receptor", "setting": "[1]", "result": "binds to the oxytocin receptor in a concentration-dependent manner"}, {"measurement": "inhibiting the apoptosis induced by corticosterone", "setting": "[2]", "result": "excellent in inhibiting the apoptosis induced by corticosterone"}]}
